{"source": "patent US9522192B2", "about": "(EPITECH GROUP S.r.l., priority 2012, dated 2016)", "key": {"[1]": {"test": "Skin accumulation and PEA release after topical application on the paw (lipid extraction, HPLC)", "quoted_text": "(§2) Frozen tissues samples were weighed and homogenized in a solution of methanol and a serine protease inhibitor, phenylmethylsulphonyl fluoride (PMSF, 1 mM). Then, homogenate tissues were subjected to methanol-chloroform-water (1:2:1, v/v/v) extraction. After centrifugation, the organic layer was carefully removed, transferred to another vial and purified by silica gel (60-Å, 230-400 mesh) micro-columns.\n(§3) Molecules of interest were isolated by small-scale chromatography. Glass microcolumns (5 cm, ø 50 mm) were used. 1 ml of a mixture (1/1 v/v) of chloroform and silica gel (0.04-0.063 mm, 230-400 mesh, Macherey-Nagel) was used to load the columns. Samples were dissolved in 1 ml of chloroform and then loaded. Columns were washed with 1 ml of chloroform and 2 ml of chloroform/methanol (9/1 v/v), thus obtaining the fractions of interest that were collected and evaporated in vacuum. The extraction method was validated in blank experiments by treating skin with a known amount of each analyzed compound. Recovery percentages were calculated as well and they resulted higher than 85% for all the tested products.\n(§4) HPLC analysis was performed on a Jasco apparatus (Jasco inc., Easton, Md., USA) composed by a quaternary gradient pump (PU 2089 Plus), a 25 μl Rheodyne injection valve and a multi-wave length UV detector (MD 2010 Plus). […] The specificity (absence of interfering peak from skin samples) was assessed as well."}, "[2]": {"tested_on": "carrageenan-induced paw oedema", "test": "Carrageenan-induced paw oedema, topical application", "type": "in vivo, mice", "details": "for anti-inflammatory effect at earlier times: 2 and 4 h after application; for anti-inflammatory activity (paw volume / paw oedema): topical on paw, dose equimolar to 1 mg PEA/paw, evaluated 2-96 h after carrageenan", "method": "(§1) Male Swiss mice weighing 25 to 30 g were purchased from Harlan (Udine, Italy). They were housed in stainless steel cages in a room kept at 22±1° C. on a 12/12-h light/dark cycle. […] Each group of mice (n=6) was applied with 0.05 ml of ethanol solutions on dorsal surface of the left paw. After 5 minutes the animal received 50 μl of 1% λ-carrageenan in sterile saline injected into the treated paw. Absolute ethanol was used as vehicle in control animals. […] Paw oedema development was measured by a plethysmometer (Ugo Basile, Milan, Italy). The increase in paw volume was evaluated as the difference between the paw volume measured at each time point and the basal paw volume measured at time 0 (before drug application and carrageenan injection). Results are expressed as mean±S.E.M. of n experiments. All analyses were conducted using Graph-Pad Prism (GraphPad Software Inc., San Diego, Calif.). The significance of differences between groups was determined by Student t-test (for ex vivo experiments) and two-way analysis of variance (ANOVA) followed by Bonferroni post hoc tests for multiple comparisons (for in vivo experiments). Difference with P<0.05 (*) was considered statistically significant."}, "[3]": {"tested_on": "carrageenan-induced hyperalgesia", "test": "Mechanical hyperalgesia after λ-carrageenan injection into the paw, topical application", "type": "in vivo, mice", "details": "for anti-hyperalgesic effect at earlier times: 2 and 4 h after application; for anti-hyperalgesic activity (paw withdrawal latency): topical on paw, dose equimolar to 1 mg PEA/paw, evaluated 2-96 h after carrageenan", "method": "as §1, with “Mechanical hyperalgesia” for “Paw oedema development”, “assessed” for “measured”, “measuring of latency (s) to withdraw” for “a plethysmometer (Ugo Basile, Milan, Italy). The increase in paw volume was evaluated as the difference between”, “from a constant mechanical pressure exerted onto its dorsal surface. A 15-g calibrated glass cylindrical rod (diameter=10 mm) […] to a conical point (diameter=3 mm) was used to exert the mechanical force. The weight was suspended vertically between two rings attached to a stand and was free to move vertically. A cut off” for “volume measured at each”, “of 90 sec. was used.” for “point and the basal paw volume measured at time 0 (before drug application and carrageenan injection).”"}, "[4]": {"details": "mouse, in vivo", "quoted_text": "as §2, §3, §4"}, "Water solubility": {"test": "Water solubility", "type": "physicochemical"}, "[5]": {"details": "6-96 h after topical application"}, "[6]": {"details": "after local application, 1.6 mg/paw"}, "[7]": {"details": "after local application, 1.72 mg/paw"}}, "note": "Like-named read-outs stand apart in the source and are kept apart here.", "data": [{"molecule": "CCCCCCCCCCCCCCCC(=O)NCCO", "note": "[PEA, Palmitoylethanolamide, reference compound]", "values": [{"measurement": "PEA levels in the skin", "setting": "[1]; after 24 h", "result": "return to baseline"}, {"measurement": "anti-inflammatory effect at earlier times", "setting": "[2]", "result": "significant"}, {"measurement": "anti-inflammatory effect at later times", "setting": "[2]; [5]", "result": "no effect"}, {"measurement": "anti-inflammatory activity (paw volume / paw oedema)", "setting": "[2]", "result": "markedly reduced"}, {"measurement": "anti-hyperalgesic effect at earlier times", "setting": "[3]", "result": "significant"}, {"measurement": "anti-hyperalgesic effect at later times", "setting": "[3]; [5]", "result": "no effect"}, {"measurement": "anti-hyperalgesic activity (paw withdrawal latency)", "setting": "[3]", "result": "markedly reduced"}]}, {"molecule": "CCCCCCCCCCCCCCCC(=O)NCCOC(=O)CCC(=O)OCCOCCO", "note": "[derivative 8a, N-Palmitoylethanolamine-O-(succinyl(diethylene glycol))]", "values": [{"measurement": "PEA release sustained / maintained up to", "setting": "[1]; after topical application", "result": "up to 72 hours"}, {"measurement": "accumulation in the skin", "setting": "[1]; after topical application", "result": "accumulate in the skin and release PEA"}, {"measurement": "kinetic release of PEA in the skin", "setting": "[1]; after topical application", "result": "faster release"}, {"measurement": "start of PEA release (relevant amount of PEA detectable)", "setting": "[1]; after topical application", "result": 2, "unit": "h"}, {"measurement": "total amount accumulated in the skin (PEA+derivative) relative to PEA alone", "setting": "[1]; whole period of analysis", "result": "~10", "unit": "times"}, {"measurement": "anti-inflammatory effect at earlier times", "setting": "[2]", "result": "No effect"}, {"measurement": "anti-inflammatory activity lasting up to", "setting": "[2]; [6]", "result": "up to 72 h"}, {"measurement": "anti-inflammatory activity (paw volume / paw oedema)", "setting": "[2]", "result": "significant"}, {"measurement": "anti-hyperalgesic effect at earlier times", "setting": "[3]", "result": "No effect"}, {"measurement": "anti-hyperalgesic activity lasting up to", "setting": "[3]; [6]", "result": "up to 72 h"}, {"measurement": "anti-hyperalgesic activity (paw withdrawal latency)", "setting": "[3]", "result": "significant"}]}, {"molecule": "CCCCCCCCCCCCCCCC(=O)NCCOC(=O)CCC(=O)OCCOCCOCCO", "note": "[derivative 8b, N-Palmitoylethanolamine-O-(succinyl(triethylene glycol))]", "values": [{"measurement": "time from which anti-inflammatory activity is significant", "setting": "[2]; [7]", "result": "≥ 2", "unit": "days"}, {"measurement": "anti-inflammatory activity (paw volume / paw oedema)", "setting": "[2]", "result": "significant"}, {"measurement": "time from which anti-hyperalgesic activity is significant", "setting": "[3]; [7]", "result": "≥ 2", "unit": "days"}, {"measurement": "anti-hyperalgesic activity (paw withdrawal latency)", "setting": "[3]", "result": "significant"}, {"measurement": "accumulation in the skin", "setting": "[4]", "result": "accumulate in the skin and release PEA"}]}, {"molecule": "N-[2-methoxypolyethylene glycol(5000)-O-carbonyl-oxy-ethyl]-palmitamide [Example 7]", "values": [{"measurement": "Water solubility", "setting": "Water solubility", "result": "> 10000", "unit": "µg/mL"}]}]}
